Assay results: US7674772B2, “Compositions and methods for treating atherosclerosis” (Queen's University at Kingston, priority 2006, dated 2010)
Square brackets hold non-standard residues; d marks the D form. Ends that are not written are not given here.

Assays:
mouse cell culture = details: U.S. Ser. No. 11/268,690; cited from earlier work
human cell culture = details: U.S. Ser. No. 11/268,690; cited from earlier work
[1] = intravenous and oral administration of an aqueous solution; U.S. Ser. No. 11/268,690; cited from earlier work
[2] = tested on: [3H]-cholesterol-loaded J774 macrophages; assay: in vivo mouse cholesterol export model; set-up: species or system mice
Method: In these experiments, mice (n=4) were first injected intravenously with [^3H]cholesterol-laden macrophages and then injected 24 hours later with the exemplary retro-inversal D amino acid peptide RFHNPDKGSRGWENAAQDA (D-form; SEQ ID NO: 3). This peptide is the reverse sequence of the forward human D amino acid 19-mer peptide ADQAANEWGRSGKDPNHFR (D-form; SEQ ID NO:11) disclosed in U.S. patent application Ser. No. 11/268,690, filed Nov. 7, 2005, teachings of which are herein incorporated by reference in their entirety.
The retro-inversal D amino acid peptide RFHNPDKGSRGWENAAQDA (SEQ ID NO: 3) at a total dose of 300 ug, was injected into the tail vein of each mouse that was previously (24 hours earlier) injected with H^3-radiolabeled cholesterol-loaded macrophages. […] The blood samples were centrifuged to separate the red blood cells from the plasma and the [^3H]-cholesterol in plasma was determined by scintillation counting. […]
Cells were washed four times with PBS/BSA and then detached from the culture dishes. […] Baseline cholesterol efflux was determined by measuring the amount of [^3H]-cholesterol in plasma by scintillation spectrometry. […]
Five hours following intravenous injection of the reverse peptide, approximately 25 μl of blood were collected from the tail vein of each animal into heparinized capillary tubes and cholesterol efflux was determined as described above. […]

ADQAANEWGRSGKDPNHFR ([dA][dD][dQ][dA][dA][dN][dE][dW]G[dR][dS]G[dK][dD][dP][dN][dH][dF][dR]) [SEQ ID NO:11, forward human SAA 1.1 D amino acid 19-mer peptide disclosed in U.S. Ser. No. 11/268,690]
cholesterol efflux in vitro (mouse cell culture): effective at increasing cholesterol efflux
cholesterol efflux in vitro (human cell culture): effective at increasing cholesterol efflux
cholesterol efflux in vivo [1]: effective at increasing cholesterol efflux

RFHNPDKGSRGWENAAQDA ([dR][dF][dH][dN][dP][dD][dK]G[dS][dR]G[dW][dE][dN][dA][dA][dQ][dD][dA]) [SEQ ID NO: 3]
increase in macrophage cholesterol export relative to control animals treated with saline vehicle alone ([2]; 300 μg total dose, tail vein injection, [3H]-cholesterol in plasma 5 hours post injection, n=4, p=0.0004): over 2.5 fold
in vivo macrophage cholesterol export / cholesterol efflux ([2]; intravenous, aqueous vehicle, versus vehicle control group (p=0.0004)): significantly enhanced
